Read-outs that look alike come from different tables or passages of the source.
Columns and labels:
[1] = One-electron reduction potential by pulse radiolysis; format: physicochemical
Description: One-electron reduction potentials were determined by pulse radiolysis following an established procedure.

[2] = Rat 28-day toxicokinetics; format: in vivo; conditions: plasma, po; for AUC: read-out: AUC within 24 hours post dosing; for half-life: read-out: apparent terminal half-life (converted)
Description: In the rat repeated-dose toxicokinetic study, fexinidazole was administered orally by gavage once a day for 28 consecutive days to ten or fifteen Crl:CD (SD)IGS BR rats/sex/group at doses of 50, 200, or 800 mg/kg/day. A control group received the vehicle alone (5% Tween 80/0.5% methocel). Ten animals/sex/group were sacrificed at the end of the treatment period on day 29 or 30 of study. The remaining 5 animals/sex/group in the control and high-dose groups were sacrificed on day 43 at the end of a 2-weeks observation period. Systemic exposure to fexinidazole and its sulfoxide and sulfone metabolites was evaluated in three additional animals/sex/group. Samples were taken at predose, and 30 min, 1, 2, 4, 8 and 24 h after dosing on days 1, 14, and 28, and in addition at 48 and 72 h after treatment on day 28.
Toxicokinetic Report for the study No. 0504-2007
SD Standard deviation of the mean […]
t1/2,z Terminal half-life tmax Time to peak plasma concentration
ULOQ Upper limit of quantification
The study was conducted according to the study protocol and related amendment.
Fexinidazole was orally given by gavage once a day for 28 days to male and female Sprague Dawley rats according to the following scheme
Fexinidazole was suspended with 5% Tween 80 in 0.5% Methyl cellulose 400 cP.
6.2. Sample Collection and Handling
Blood samples (about 0.25 mL/sampling time) were withdrawn from retro-orbital sinus plexus under isofluorane anesthesia and put in heparinized plastic tubes kept on a ice-water bath, then centrifuged for 10 min at 1200g at +4°C and two aliquots of about 50 μL of plasma were stored in a freezer at -80°C until analysis. Blood was taken from three rats/gender/dose on Days 1 and 14 at pre-dose and 0.5, 1, 2, 4, 8 and 24 hours after dosing, on Day 28 at pre-dose and 1, 2, 4, 8, 24, 48 and 72 hours after dosing. After the administration of the vehicle, the samples were taken from three rats/gender at pre-dose and […]
6.3. Bioanalytical Method
Rat plasma concentrations of Fexinidazole and its sulfoxide (M1) and sulfone (M2) metabolites were determined by a validated LC/MS/MS method. The calibration range for the assay was 5-1000 ng/mL for Fexinidazole and 25-25000 ng/mL for M1 and M2.
Study samples containing analytes concentrations above the upper limit of quantitation were diluted with blank matrix prior to analysis.
6.4. Pharmacokinetic Calculations
Pharmacokinetic evaluation was carried out using non-compartmental approach with the aid […]
Excel spreadsheet (Microsoft Inc., Seattle, USA). […]
In the calculations, the undetectable concentrations between detectable ones were ignored.
After each dose level, Cmax and tmax of Fexinidazole and sulfoxide and sulfone metabolites […]
linear trapezoidal rule up to the last detectable concentration. On Day 28, since the blood […]
24 hours post dosing was calculated and denoted AUC0-24. This AUC was calculated in order to compare AUC values on Day 28 to those on Day 1 and Day 14. On Day 28, in addition, the half-life of the terminal phase, t1/2,z, was determined by linear regression analysis of the natural-log concentration vs. time curve, where t1/2,z = ln(2)/slope of the regression line.
Fexinidazole and metabolites accumulation ratios, based on Cmax (RA,Cmax), AUC0-24 (RA,AUC0-24) and AUC0-t(last) (RA,AUC0-t(last)), were calculated as the ratio between the parameters obtained on Day 14 and Day 28 to the corresponding one at Day 1. […]
pharmacokinetic parameters of each compound sorted by dose, gender and day of dosing. […]
compound are reported in Tables 1 and 2, whilst individual and mean parameters of each […]
Individual and mean (±SD, CV%) plasma
2A1 - 19A1 of Appendix 1. Individual plasma concentrations of Fexinidazole and both metabolites are plot in Figures 1 - 9, whilst the mean concentrations are plot in Figures 10 - 15. Mean normalized Cmax and AUC0-t(last) values of Fexinidazole and metabolites vs. dose are plot in Figures 16 - 21.
In-study bioanalytical validation data are reported in Appendix 2. All analytical batches met […]

human lymphocytes = test: In vitro micronucleus test; format: cell-based
Description: Duplicate human lymphocyte cultures were prepared from the pooled blood of two donors in two independent experiments. […] The test concentrations for micronucleus analysis were selected by evaluating the effect of fexinidazole on the replication index (RI). In each experiment, micronuclei were analysed at three concentrations. Similar tests were carried out on fexinidazole sulfone. As per the Ames test, this was carried out in the absence of rat liver S9 only.

[3] = Sprague Dawley (Crl:CD (SD)IGS BR), 50 mg/kg/day, Day 28, female
[4] = Sprague Dawley (Crl:CD (SD)IGS BR), 200 mg/kg/day, Day 28, female
[5] = Sprague Dawley (Crl:CD (SD)IGS BR), 200 mg/kg/day, Day 28, male
[6] = Sprague Dawley (Crl:CD (SD)IGS BR), 800 mg/kg/day, Day 28, female (n=2)
[7] = Sprague Dawley (Crl:CD (SD)IGS BR), 800 mg/kg/day, Day 28, male
[8] = Sprague-Dawley (Crl:CD (SD)IGS BR), 50 mg/kg/day, 50 mg/kg/day po, day 1
[9] = Sprague-Dawley (Crl:CD (SD)IGS BR), 50 mg/kg/day, 50 mg/kg/day po, day 14
[10] = Sprague-Dawley (Crl:CD (SD)IGS BR), 200 mg/kg/day, 200 mg/kg/day po, day 1
[11] = both sexes, Sprague-Dawley (Crl:CD (SD)IGS BR), 200 mg/kg/day, 200 mg/kg/day po, day 14
[12] = both sexes, Sprague-Dawley (Crl:CD (SD)IGS BR), 800 mg/kg/day, 800 mg/kg/day po, day 1
[13] = both sexes, Sprague-Dawley (Crl:CD (SD)IGS BR), 800 mg/kg/day, 800 mg/kg/day po, day 14

With CSc1ccc(OCc2ncc([N+](=O)[O-])n2C)cc1 [Fexinidazole, 1-methyl-2-((p-(methylthio)phenoxy)methyl)-5-nitroimidazole] the “single electron redox potential” value [1] was −511 mV, the AUC [2, 3] was 1450 ± 335 ng·h/mL and the half-life [2, 3] was 5.1 ± 5.1 h. The half-life ([2]; Sprague Dawley (Crl:CD (SD)IGS BR), 50 mg/kg/day, Day 28, male) was 4.7 ± 1.2 h, the AUC [2, 4] was 4440 ± 514 ng·h/mL and the half-life [2, 4] was 6.3 ± 4.5 h. It also gave an AUC [2, 5] of 2330 ± 1760 ng·h/mL, a half-life [2, 5] of 8.8 ± 4.8 h and an AUC [2, 6] of 7640 ± 1780 ng·h/mL. For the same molecule, the half-life [2, 6] was 6.7 ± 2.3 h, the AUC [2, 7] was 3170 ± 734 ng·h/mL and the half-life [2, 7] was 11 ± 2.7 h. It also gave a Cmax [2, 8] of 90 ± 70 ng/mL, a Tmax [2, 8] of 1.42 ± 1.28 h and an AUC(0-t) ([2]; Sprague-Dawley (Crl:CD (SD)IGS BR), 50 mg/kg/day, 50 mg/kg/day po, day 1, read-out: AUC0-t(last)) of 470 ± 340 ng·h/mL. For the same molecule, the Cmax [2, 9] was 180 ± 140 ng/mL, the Tmax [2, 9] was 1.92 ± 1.2 h and the AUC(0-t) ([2]; Sprague-Dawley (Crl:CD (SD)IGS BR), 50 mg/kg/day, 50 mg/kg/day po, day 14, read-out: AUC0-t(last)) was 830 ± 540 ng·h/mL. It also gave a Cmax [2, 10] of 380 ± 280 ng/mL, a Tmax [2, 10] of 1.92 ± 1.2 h and an AUC(0-t) ([2]; both sexes, Sprague-Dawley (Crl:CD (SD)IGS BR), 200 mg/kg/day, 200 mg/kg/day po, day 1, read-out: AUC0-t(last)) of 2160 ± 1340 ng·h/mL. The Cmax [2, 11] was 520 ± 300 ng/mL, the Tmax [2, 11] was 2.08 ± 1.11 h and the AUC(0-t) ([2]; both sexes, Sprague-Dawley (Crl:CD (SD)IGS BR), 200 mg/kg/day, 200 mg/kg/day po, day 14, read-out: AUC0-t(last)) was 3020 ± 1470 ng·h/mL. For the same molecule, the Cmax [2, 12] was 1480 ± 710 ng/mL, the Tmax [2, 12] was 1.58 ± 0.66 h and the AUC(0-t) ([2]; both sexes, Sprague-Dawley (Crl:CD (SD)IGS BR), 800 mg/kg/day, 800 mg/kg/day po, day 1, read-out: AUC0-t(last)) was 12800 ± 4100 ng·h/mL. It also gave a Cmax [2, 13] of 1020 ± 870 ng/mL, a Tmax [2, 13] of 3.17 ± 2.84 h and an AUC(0-t) ([2]; both sexes, Sprague-Dawley (Crl:CD (SD)IGS BR), 800 mg/kg/day, 800 mg/kg/day po, day 14, read-out: AUC0-t(last)) of 9290 ± 5200 ng·h/mL. The Cmax ([2]; female, Sprague Dawley (Crl:CD (SD)IGS BR), 50 mg/kg, Day 1, female) was 149 ± 46 ng/mL, the AUC(0-t) ([2]; female, Sprague Dawley (Crl:CD (SD)IGS BR), 50 mg/kg, Day 1, female, read-out: AUC0-t(last)) was 759 ± 153 ng·h/mL and the Cmax ([2]; female, Sprague Dawley (Crl:CD (SD)IGS BR), 50 mg/kg/day, Day 28, female) was 422 ± 358 ng/mL. For the same molecule, the AUC(0-t) ([2]; female, Sprague Dawley (Crl:CD (SD)IGS BR), 50 mg/kg/day, Day 28, female, read-out: AUC0-t(last)) was 1630 ± 570 ng·h/mL, the Cmax ([2]; female, Sprague Dawley (Crl:CD (SD)IGS BR), 200 mg/kg, Day 1, female) was 604 ± 211 ng/mL and the AUC(0-t) ([2]; female, Sprague Dawley (Crl:CD (SD)IGS BR), 200 mg/kg, Day 1, female, read-out: AUC0-t(last)) was 3200 ± 856 ng·h/mL. For the same molecule, the Cmax ([2]; female, Sprague Dawley (Crl:CD (SD)IGS BR), 200 mg/kg/day, Day 28, female) was 903 ± 87 ng/mL, the AUC(0-t) ([2]; female, Sprague Dawley (Crl:CD (SD)IGS BR), 200 mg/kg/day, Day 28, female, read-out: AUC0-t(last)) was 4750 ± 508 ng·h/mL and the Cmax ([2]; female, Sprague Dawley (Crl:CD (SD)IGS BR), 800 mg/kg, Day 1, female) was 1480 ± 200 ng/mL. It also gave an AUC(0-t) ([2]; female, Sprague Dawley (Crl:CD (SD)IGS BR), 800 mg/kg, Day 1, female, read-out: AUC0-t(last)) of 15700 ± 3610 ng·h/mL, a Cmax ([2]; female, Sprague Dawley (Crl:CD (SD)IGS BR), 800 mg/kg/day, Day 28, female (n=2)) of 749 ± 90 ng/mL and an AUC(0-t) ([2]; female, Sprague Dawley (Crl:CD (SD)IGS BR), 800 mg/kg/day, Day 28, female (n=2), read-out: AUC0-t(last)) of 7940 ± 2210 ng·h/mL. It also gave a Cmax ([2]; male, Sprague Dawley (Crl:CD (SD)IGS BR), 50 mg/kg, Day 1, male) of 39 ± 17 ng/mL, an AUC(0-t) ([2]; male, Sprague Dawley (Crl:CD (SD)IGS BR), 50 mg/kg, Day 1, male, read-out: AUC0-t(last)) of 178 ± 99 ng·h/mL and a Cmax ([2]; male, Sprague Dawley (Crl:CD (SD)IGS BR), 50 mg/kg/day, Day 28, male) of 133 ± 24 ng/mL. It also gave an AUC(0-t) ([2]; male, Sprague Dawley (Crl:CD (SD)IGS BR), 50 mg/kg/day, Day 28, male, read-out: AUC0-t(last)) of 889 ± 287 ng·h/mL, a Cmax ([2]; male, Sprague Dawley (Crl:CD (SD)IGS BR), 200 mg/kg, Day 1, male) of 165 ± 97 ng/mL and an AUC(0-t) ([2]; male, Sprague Dawley (Crl:CD (SD)IGS BR), 200 mg/kg, Day 1, male, read-out: AUC0-t(last)) of 1120 ± 708 ng·h/mL. It also gave a Cmax ([2]; male, Sprague Dawley (Crl:CD (SD)IGS BR), 200 mg/kg/day, Day 28, male) of 255 ± 136 ng/mL, an AUC(0-t) ([2]; male, Sprague Dawley (Crl:CD (SD)IGS BR), 200 mg/kg/day, Day 28, male, read-out: AUC0-t(last)) of 4410 ± 3980 ng·h/mL and a Cmax ([2]; male, Sprague Dawley (Crl:CD (SD)IGS BR), 800 mg/kg, Day 1, male) of 1480 ± 1110 ng/mL. The AUC(0-t) ([2]; male, Sprague Dawley (Crl:CD (SD)IGS BR), 800 mg/kg, Day 1, male, read-out: AUC0-t(last)) was 10000 ± 2160 ng·h/mL, the Cmax ([2]; male, Sprague Dawley (Crl:CD (SD)IGS BR), 800 mg/kg/day, Day 28, male) was 523 ± 127 ng/mL and the AUC(0-t) ([2]; male, Sprague Dawley (Crl:CD (SD)IGS BR), 800 mg/kg/day, Day 28, male, read-out: AUC0-t(last)) was 11900 ± 5360 ng·h/mL. The “in vitro micronucleus test result” value (human lymphocytes) was “did not induce the formation of micronuclei”, the Micronucleated binucleate cells (human lymphocytes; 20 μg/mL, 24-h PHA, +S9) was 0.50% and the Micronucleated binucleate cells (human lymphocytes; 20 μg/mL, 24-h PHA, −S9) was 0.50%. It also gave a Micronucleated binucleate cells (human lymphocytes; 20 μg/mL, 48-h PHA, +S9) of 0.60%, a Micronucleated binucleate cells (human lymphocytes; 20 μg/mL, 48-h PHA, −S9) of 1.1% and a Micronucleated binucleate cells (human lymphocytes; 40 μg/mL, 24-h PHA, +S9) of 0.55%. For the same molecule, the Micronucleated binucleate cells (human lymphocytes; 40 μg/mL, 24-h PHA, −S9) was 0.40%, the Micronucleated binucleate cells (human lymphocytes; 40 μg/mL, 48-h PHA, +S9) was 1.20% and the Micronucleated binucleate cells (human lymphocytes; 40 μg/mL, 48-h PHA, −S9) was 0.60%. The Micronucleated binucleate cells (human lymphocytes; 80 μg/mL, 24-h PHA, +S9) was 0.75%, the Micronucleated binucleate cells (human lymphocytes; 80 μg/mL, 24-h PHA, −S9) was 0.70% and the Micronucleated binucleate cells (human lymphocytes; 80 μg/mL, 48-h PHA, +S9) was 0.40%. The Micronucleated binucleate cells (human lymphocytes; 80 μg/mL, 48-h PHA, −S9) was 0.90%.
